# Source: patent US20030229132A1, “Small molecule modulators of apoptosis” (priority 2002, published 2003)
# B1: Fas Ligand: induces apoptosis which proceeds through the caspase-8 pathway (protein, UniProt P48023 130-281, looked up)
# Tumor necrosis factor ligand …: QIGHPSPPPEKKELRKVAHLTGKSNSRSMPLEWEDTYGIVLLSGVKYKKGGLVINETGLYFVYSKVYFRGQSCNNLPLSHKVYMRNSKYPQDLVMMEGKMMSYCTTGQMWARSSYLGAVFNLTSADHLYVNVSELSLVNFEESQTFFGLYKL
# Legend:
# Jurkat cells [1] = experiment: DNA fragmentation analysis in Jurkat cells; assay type: cell-based, human; conditions: 50 μM compound or 1 μM staurosporin, 8 hr
# Jurkat cells [2] = experiment: Caspase-3 activation in Jurkat cells (immunoblot); assay type: cell-based, human; conditions: 50 μM compound or 1 μM staurosporin, 6 hr
# Protocol: (§1) (C) DNA fragmentation analysis. […] Cell viability assay.
# (§2) Compounds were then tested for their ability to induce apoptosis in live cells. The ability of the compounds to activate caspase-3 in a Jurkat cell line was first assayed. […] This same pattern was seen when we assayed for the cleavage of poly (ADP-ribose) polymerase (PARP), a cellular substrate of caspases-3 and -7 (see, D. W. Nicholson, Cell Death Differ 6, 1028-42 (1999)). Upon apoptosis, PAR-P is cleaved from a 116 kD to an 85 kD protein.
# [3] = test system: caspase-3 (DEVDase activity); experiment: DEVDase fluorescence screen in HeLa cell S-100 cytoplasmic extracts; assay type: biochemical; conditions: in vitro fluorescence assay, HeLa S-100 extracts with cyto c
# Description: In order to identify compounds that modulate apoptosis, a chemical genetics approach was utilized to screen for molecules that target components of the apoptosis pathway (see, T. U. Mayer et al., Science 286, 971-4 (1999)). An in vitro screen using cytoplasmic extracts was adapted for apoptosis to a 96-well format and used to test an in-house library of ˜3500 compounds (see, T. Fernandes-Alnemri et al, Proc Natl Acad Sci USA 93, 7464-9 (1996); X. Liu, C. N. Kim, J. Yang, R. Jemmerson, X. Wang, Cell 86, 147-57 (1996); L. M. Leoni et al., Proc Natl Acad Sci USA 95, 9567-71 (1998)). Briefly, individual compounds were added to HeLa cell S-100 cytoplasmic extracts at a final concentration of 1 mM and apoptosis was induced by adding bovine heart cyto c (HeLa cell cytoplasmic extracts were prepared according to previously published reports (see, P. Li et al., Cell 91, 479-89 (1997)). Compounds were distributed into 96-well microtiter plates at a final concentration of 1 mM. To each well was added 250 μg of total protein from cytoplasmic extracts in HEB buffer (50 mM Hepes pH 7.4, 50 mM KCl, 5 mM EGTA, 2 mM MgCl), with 2 mM DTT, 2 μM cyto c, and 0.5 μM DEVD-AFC substrate in a total of 150 μL. Plates were incubated at 37° C. and fluorescence was read in a LJL Biosystems plate reader at 10 min intervals). Activation of caspase-3 was monitored by cleavage of a fluorogenic substrate, Asp-Glu-Val-Asp-7-amino-4-trifluoromethylcoumarin (DEVDase activity). As designed, the DEVDase fluorescence screen encompasses the release of cyto c from the mitochondria to the activation of caspase-3. Possible targets include cyto c, Apaf-1, caspase-9, caspase-3, inhibitors of apoptosis (IAPs), and possible unidentified components present in the cytosol.
# Jurkat cells [4] = experiment: PARP cleavage in Jurkat cells (immunoblot); assay type: cell-based, human; conditions: 50 μM compound or 1 μM staurosporin, 6 hr
# Protocol: as §1, §2
# NCI-H23 = experiment: Cell viability, NCI-H23; assay type: cell-based, human; conditions: NCI-H23, lung
# CCRF-CEM = experiment: Cell viability, CCRF-CEM; assay type: cell-based, human; conditions: leukemia
# Description: (§3) Samples were then probed by immunoblot for (A) caspase-3 activation or (B) cleavage of PARP. (C) DNA fragmentation analysis. […] The DNA was isolated by phenol/chloroform extraction, separated on a 2% agarose gel and visualized by ethidium bromide staining. Cell viability assay.
# (§4) Normal cell lines include peripheral blood lymphocytes (PBL) isolated from donated human blood, non-transformed mammary fibroblasts (MCF-10A), human mammary epithelial cells (HMEC), human umbilical vein endothelial cells (HUVEC), and human prostate epithelial cells (PREC). Transformed cell lines include cell lines from leukemia, breast, lung, ovarian, and epidermal cancers (Table 1).
# [5] = test system: peripheral blood lymphocytes (PBL); experiment: Cell viability, PBL; assay type: cell-based, human; conditions: normal cell
# Description: as §3, §4
# [6] = test system: Normal (PBL) and cancer (Jurkat, Molt-4, CCRF-CEM) lymphocyte cell lines; experiment: Cell viability, normal and cancer lymphocyte cell lines compared; conditions: all four lymphocyte cell lines, normal and cancerous
# Description: as §3, §4
# procaspase-3 processing = experiment: Procaspase-3 processing by capture ELISA in HeLa cell extract (cyto c / compound titration); assay type: biochemical; conditions: cyto c titrated into HeLa cell extract, no compound; read-out: concentration for half-maximal activation (AC50) of procaspase-3 processing
# Protocol: FIG. 2 depicts activity of compounds 1-5 in cell lysates. (A) Compound activation is cyto c dependent. Cyto c was titrated into S-100 cytoplasmic extracts with vehicle alone or 20 μM compound and procaspase-3 processing was assayed by capture ELISA. (B) Compound activation is dose-dependent. Compounds or vehicle were titrated into S-100 cytoplasmic extracts at a cyto c concentration of 1.25 μM and procaspases-3 processing was assayed by capture ELISA. (C) Immunoblot assay of compound-induced caspase activation. Samples at the 20 μM compound concentration in (B) were separated on SDS-polyacrylamide gel and transferred to polyvinyl membrane. […]
# In order to determine if these compounds required cyto c for caspase-3 activation, cyto c was titrated into HeLa cell extract in the presence and absence of compounds and procaspase-3 processing was monitored by capture ELISA (Cyto c was titrated into lysates as detailed in the screening procedure. Capture ELISA assay for active caspase-3 was adapted from Aragones et al., www.biocarta.com. Briefly, a mouse monoclonal antibody recognizing both full-length and cleaved caspase-3 (capture antibody, Transduction Laboratories) was immobilized onto an immunosorp plate and blocked with 5% milk, and 25 μL of the caspase activation reaction in 75 μL Superblock (Pierce) was added. […]
# [7] = test system: Jurkat cells transfected with Apaf-1 siRNA; experiment: Viability of Jurkat cells transfected with Apaf-1 siRNA (MTT test); assay type: cell-based, human; conditions: 20 nM Apaf-1 siRNA 48 hr, then 24 hr incubation
# Protocol: (A) Jurkat cells were transfected with 20 nM Apaf-1 siRNA for 48 hr and half the cells were lysed and probed with antibodies to Apaf-1, caspase-9, and caspase-3. The other half of the cells was incubated with varying concentrations of (B), compound 2 or (C), Fas ligand for 24 hr and assayed for viability by MTT test. (D) SK-OV-3 cells were transiently transfected with Apaf-1 or vector control for 24 hr and then incubated with vary concentrations of compound 2 and assayed for viability. (E) Cyto c was titrated into SK-OV-3 cell lysate in the presence of 300 μM dATP, with or without 150 nM purified Apaf-1 and 20 μM compound 2 as indicated.
# In order to verify that compound 2 targets the apoptosome as a function of its cytotoxic activity, small interfering RNA (siRNA) was used to silence the expression of Apaf-1 in Jurkat cells. Sense and anti-sense oligonucleotides corresponding to nucleotides 978-998 of Apaf-1 (([…]) as reported by Lassus et al. Science 297, 1352-4. (2002)), were purchased from Dharmacon. Transfection of siRNA into Jurkat cells was accomplished using GeneSilencer (Gene Therapy Systems) according to manufacturer's instructions. There was a significant decrease in the level of expression of Apaf-1 48 hr after transfection of an Apaf-1 specific siRNA, without affecting the expression of caspases in the pathway (FIG. 5A).
Molecule,DNA fragmentation (Jurkat cells [1]),processing of procaspase-3 (Jurkat cells [2]),activation of DEVDase activity [3],cleavage of PARP (Jurkat cells [4]),also measured
CCOC(=O)NCc1ccc(Cl)c(Cl)c1 [Compound 1],less pronounced effect,no processing,most active,–,–
O=C1Cc2ccccc2N1Cc1ccc(Cl)c(Cl)c1 [Compound 3],induced DNA fragmentation,significant processing,strongly activated DEVDase activity,limited processing,–
"CN[C@@H]1C[C@H]2O[C@@](C)([C@@H]1OC)n1c3ccccc3c3c4c(c5c6ccccc6n2c5c31)C(=O)NC4 [Staurosporin, reference compound]",“laddering” effect,significant processing,–,complete cleavage,IC50 (NCI-H23): 85 nM; IC50 (CCRF-CEM): 69 nM; IC50 [5]: 69 nM; susceptibility to cytotoxicity [6]: equally susceptible
cyto c: bovine heart cyto c added to cytoplasmic extracts to induce apoptosis,–,–,–,–,AC50 (procaspase-3 processing): ~1750 nM
B1,–,–,–,–,cell killing after silencing of Apaf-1 [7]: still sensitive
